In patent US20240218022A1, “ANTI-VISTA MACROCYCLIC PEPTIDES AND COMPOSITIONS” (BRISTOL-MYERS SQUIBB COMPANY, priority 2022, published 2024):
Positions of bridges follow the written chain, without caps; N, C: chain ends. Non-standard residues stand in square brackets, D forms with d. Residues, ends and D or L forms follow the SMILES beside them. Phe(3-Me) = Cc1cccc(C[C@H](N)C(=O)O)c1; Cit = NC(=O)NCCC[C@H](N)C(=O)O; Ahp(2) = CCCCC[C@H](N)C(=O)O; NMeNle = CCCC[C@H](NC)C(=O)O; NHexGly = CCCCCCNCC(=O)O; Nle = CCCC[C@H](N)C(=O)O; Orn = NCCC[C@H](N)C(=O)O

target: T1, mouse VISTA (mVISTA) (Mus musculus, UniProt Q9D659); experiment: Cell-Based Binding High-Content Assay For mVISTA (HC CBA mVISTA); settings: the 19th table, scaffold drawing 22; read-out: HC CBA mVISTA IC50
T1 construct: expressed in transfected cells; host or cells: Human embryonic kidney 293T cells
T1 sequence (Q9D659 33-308): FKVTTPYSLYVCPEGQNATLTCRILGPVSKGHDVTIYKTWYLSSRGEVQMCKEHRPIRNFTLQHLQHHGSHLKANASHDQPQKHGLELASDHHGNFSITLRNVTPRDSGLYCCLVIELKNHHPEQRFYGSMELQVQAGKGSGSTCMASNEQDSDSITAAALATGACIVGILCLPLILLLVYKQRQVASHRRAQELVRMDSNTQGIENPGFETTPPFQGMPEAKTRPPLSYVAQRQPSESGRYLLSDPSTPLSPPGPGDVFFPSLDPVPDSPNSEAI
Method in brief: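 Read-out: Alexa 647–streptavidin signal imaged on fixed, Hoechst-stained mVISTA-293T cells, with IC50 taken from a four-parameter logistic curve. Compounds competed with 2 nM biotinylated peptide for 30 min at room temperature, tested under both no-wash and wash (1 h compound, media exchange, 1 h) formats.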

| SMILES | IC50 [nM] |
| --- | --- |
| CCCCCCN1CC(=O)N[C@@H](Cc2ccc(O)cc2)C(=O)N[C@@H](CCCC)C(=O)N[C@@H](CC(N)=O)C(=O)N[C@@H](CCCNC(=N)N)C(=O)N[C@@H](CC(C)C)C(=O)N[C@@H](CCCCC)C(=O)N2CCC[C@H]2C(=O)N[C@@H](C(C)C)C(=O)N[C@@H](CC(=O)O)C(=O)N[C@H](C(=O)N[C@@H](CO)C(=O)O)CSCC(=O)N[C@@H](Cc2cccc(C)c2)C(=O)N[C@@H](Cc2c[nH]c3ccccc23)C(=O)N[C@@H](CC(=O)O)C1=O [compound 1424] ({CH2CO}-[Phe(3-Me)]WD[NHexGly]Y[Nle]NRL[Ahp(2)]PVDCS-OH; thioether N-14) | 11.9 |
| CCCCCCN1CC(=O)N[C@@H](Cc2ccc(O)cc2)C(=O)N[C@@H](CCCC)C(=O)NCC(=O)N[C@@H](CCCNC(=N)N)C(=O)N[C@@H](CC(C)C)C(=O)N[C@@H](CCCCC)C(=O)N2CCC[C@H]2C(=O)N[C@@H](C(C)C)C(=O)N[C@@H](CC(=O)O)C(=O)N[C@H](C(=O)N[C@@H](CO)C(=O)O)CSCC(=O)N[C@@H](Cc2cccc(C)c2)C(=O)N[C@@H](Cc2c[nH]c3ccccc23)C(=O)N[C@@H](CC(=O)O)C1=O [compound 1425] ({CH2CO}-[Phe(3-Me)]WD[NHexGly]Y[Nle]GRL[Ahp(2)]PVDCS-OH; thioether N-14) | 13.4 |
| CCCCCCN1CC(=O)N[C@@H](Cc2ccc(O)cc2)C(=O)N[C@@H](CCCC)C(=O)N[C@@H](CC(=O)O)C(=O)N[C@@H](CCCN)C(=O)N[C@@H](CC(C)C)C(=O)N[C@@H](CCCCC)C(=O)N2CCC[C@H]2C(=O)N[C@@H](C(C)C)C(=O)N[C@@H](CC(=O)O)C(=O)N[C@H](C(=O)N[C@@H](CO)C(N)=O)CSCC(=O)N[C@@H](Cc2cccc(C)c2)C(=O)N[C@@H](Cc2c[nH]c3ccccc23)C(=O)N[C@@H](CC(=O)O)C1=O [compound 1427] ({CH2CO}-[Phe(3-Me)]WD[NHexGly]Y[Nle]D[Orn]L[Ahp(2)]PVDCS-NH2; thioether N-14) | 9.4 |
| CCCCCCN1CC(=O)N[C@@H](Cc2ccc(O)cc2)C(=O)N[C@@H](CCCC)C(=O)N[C@@H](CC(=O)O)C(=O)N[C@@H](CCCNC(=N)N)C(=O)N[C@@H](CC(C)C)C(=O)N[C@@H](CCCCC)C(=O)N2CCC[C@H]2C(=O)N[C@@H](C(C)C)C(=O)N[C@@H](CC(=O)O)C(=O)N[C@H](C(=O)N[C@@H](CO)C(N)=O)CSCC(=O)N[C@@H](Cc2cccc(C)c2)C(=O)N[C@@H](Cc2c[nH]c3ccccc23)C(=O)N[C@@H](CC(=O)O)C1=O [compound 1428] ({CH2CO}-[Phe(3-Me)]WD[NHexGly]Y[Nle]DRL[Ahp(2)]PVDCS-NH2; thioether N-14) | 13.6 |
| CCCCCCN1CC(=O)N[C@@H](Cc2ccc(O)cc2)C(=O)N[C@@H](CC(C)C)C(=O)N[C@@H](CC(N)=O)C(=O)N[C@@H](CCCNC(=N)N)C(=O)N[C@@H](CC(C)C)C(=O)N[C@@H](CCCCC)C(=O)N2CCC[C@H]2C(=O)N[C@@H](C(C)C)C(=O)N[C@@H](C(C)C)C(=O)N[C@H](C(=O)N[C@@H](CO)C(=O)O)CSCC(=O)N[C@@H](Cc2cccc(C)c2)C(=O)N[C@@H](Cc2ccc(O)cc2)C(=O)N[C@@H](CC(=O)O)C1=O [compound 1434] ({CH2CO}-[Phe(3-Me)]YD[NHexGly]YLNRL[Ahp(2)]PVVCS-OH; thioether N-14) | 20.4 |
| CCCCCCN1CC(=O)N[C@@H](Cc2ccc(O)cc2)C(=O)N[C@@H](CCCC)C(=O)NCC(=O)N[C@@H](CCCNC(=N)N)C(=O)N[C@@H](CC(C)C)C(=O)N[C@@H](CCCCC)C(=O)N2CCC[C@H]2C(=O)N[C@@H](C(C)C)C(=O)N[C@@H](CC(=O)O)C(=O)N[C@H](C(=O)N[C@@H](CO)C(=O)O)CSCC(=O)N[C@@H](Cc2cccc(C)c2)C(=O)N[C@@H](Cc2ccc(O)cc2)C(=O)N[C@@H](CC(=O)O)C1=O [compound 1435] ({CH2CO}-[Phe(3-Me)]YD[NHexGly]Y[Nle]GRL[Ahp(2)]PVDCS-OH; thioether N-14) | 9.4 |
| CCCCCCN1CC(=O)N[C@@H](Cc2ccc(O)cc2)C(=O)N[C@@H](CCCC)C(=O)N[C@@H](CC(=O)O)C(=O)N[C@@H](CCCN)C(=O)N[C@@H](CC(C)C)C(=O)N[C@@H](CCCCC)C(=O)N2CCC[C@H]2C(=O)N[C@@H](C(C)C)C(=O)N[C@@H](CC(=O)O)C(=O)N[C@H](C(=O)N[C@@H](CO)C(N)=O)CSCC(=O)N[C@@H](Cc2cccc(C)c2)C(=O)N[C@@H](Cc2ccc(O)cc2)C(=O)N[C@@H](CC(=O)O)C1=O [compound 1436] ({CH2CO}-[Phe(3-Me)]YD[NHexGly]Y[Nle]D[Orn]L[Ahp(2)]PVDCS-NH2; thioether N-14) | 10.6 |
| CCCCCCN1CC(=O)N[C@@H](Cc2ccc(O)cc2)C(=O)N[C@@H](CCCC)C(=O)N[C@@H](CC(=O)O)C(=O)N[C@@H](CCCNC(=N)N)C(=O)N[C@@H](CC(C)C)C(=O)N[C@@H](CCCCC)C(=O)N2CCC[C@H]2C(=O)N[C@@H](C(C)C)C(=O)N[C@@H](CC(=O)O)C(=O)N[C@H](C(=O)N[C@@H](CO)C(N)=O)CSCC(=O)N[C@@H](Cc2cccc(C)c2)C(=O)N[C@@H](Cc2ccc(O)cc2)C(=O)N[C@@H](CC(=O)O)C1=O [compound 1437] ({CH2CO}-[Phe(3-Me)]YD[NHexGly]Y[Nle]DRL[Ahp(2)]PVDCS-NH2; thioether N-14) | 18.2 |
| CCCCCCN1CC(=O)N[C@@H](Cc2ccc(O)cc2)C(=O)N[C@@H](CCCC)C(=O)N[C@@H](CC(=O)O)C(=O)N[C@@H](CCCNC(N)=O)C(=O)N(C)[C@@H](CCCC)C(=O)N[C@@H](CCCCC)C(=O)N2CCC[C@H]2C(=O)N[C@@H](C(C)C)C(=O)N[C@@H](CC(=O)O)C(=O)N[C@H](C(=O)N[C@@H](CC(=O)O)C(N)=O)CSCC(=O)N[C@@H](Cc2cccc(C)c2)C(=O)N[C@@H](Cc2c[nH]c3ccccc23)C(=O)N[C@@H](CC(=O)O)C1=O [compound 1438] ({CH2CO}-[Phe(3-Me)]WD[NHexGly]Y[Nle]D[Cit][NMeNle][Ahp(2)]PVDCD-NH2; thioether N-14) | 22.4 |
| CCCCCCN1CC(=O)N[C@@H](Cc2ccc(O)cc2)C(=O)N[C@@H](CCCC)C(=O)N[C@@H](CC(=O)O)C(=O)N[C@@H](CCCNC(=N)N)C(=O)N(C)[C@@H](CCCC)C(=O)N[C@@H](CCCCC)C(=O)N2CCC[C@H]2C(=O)N[C@@H](C(C)C)C(=O)N[C@@H](CC(=O)O)C(=O)N[C@H](C(=O)N[C@@H](CC(=O)O)C(N)=O)CSCC(=O)N[C@@H](Cc2cccc(C)c2)C(=O)N[C@@H](Cc2c[nH]c3ccccc23)C(=O)N[C@@H](CC(=O)O)C1=O [compound 1440] ({CH2CO}-[Phe(3-Me)]WD[NHexGly]Y[Nle]DR[NMeNle][Ahp(2)]PVDCD-NH2; thioether N-14) | 14.8 |

More lines, in order of falling IC50, values ahead:

| IC50 [nM] | SMILES |
| --- | --- |
| 9.3 | CCCCCCN1CC(=O)N[C@@H](Cc2ccc(O)cc2)C(=O)N[C@@H](CCCC)C(=O)N[C@@H](CC(=O)O)C(=O)N[C@@H](CCCN)C(=O)N(C)[C@@H](CCCC)C(=O)N[C@@H](CCCCC)C(=O)N2CCC[C@H]2C(=O)N[C@@H](C(C)C)C(=O)N[C@@H](CC(=O)O)C(=O)N[C@H](C(=O)N[C@@H](CC(=O)O)C(N)=O)CSCC(=O)N[C@@H](Cc2cccc(C)c2)C(=O)N[C@@H](Cc2c[nH]c3ccccc23)C(=O)N[C@@H](CC(=O)O)C1=O [compound 1439] ({CH2CO}-[Phe(3-Me)]WD[NHexGly]Y[Nle]D[Orn][NMeNle][Ahp(2)]PVDCD-NH2; thioether N-14) |
| 6.2 | CCCCCCN1CC(=O)N[C@@H](Cc2ccc(O)cc2)C(=O)N[C@@H](CCCC)C(=O)N[C@@H](CC(=O)O)C(=O)N[C@@H](CCCN)C(=O)N[C@@H](CC(C)C)C(=O)N[C@@H](CCCCC)C(=O)N2CCC[C@H]2C(=O)N[C@@H](C(C)C)C(=O)N[C@@H](CC(=O)O)C(=O)N[C@H](C(=O)N[C@@H](CC(=O)O)C(N)=O)CSCC(=O)N[C@@H](Cc2cccc(C)c2)C(=O)N[C@@H](Cc2ccc(O)cc2)C(=O)N[C@@H](CC(=O)O)C1=O [compound 1430] ({CH2CO}-[Phe(3-Me)]YD[NHexGly]Y[Nle]D[Orn]L[Ahp(2)]PVDCD-NH2; thioether N-14) |
| 4.1 | CCCCCCN1CC(=O)N[C@@H](Cc2ccc(O)cc2)C(=O)N[C@@H](CC(C)C)C(=O)N[C@@H](CC(N)=O)C(=O)N[C@@H](CCCNC(=N)N)C(=O)N[C@@H](CC(C)C)C(=O)N[C@@H](CCCCC)C(=O)N2CCC[C@H]2C(=O)N[C@@H](C(C)C)C(=O)N[C@@H](C(C)C)C(=O)N[C@H](C(=O)N[C@@H](CO)C(=O)O)CSCC(=O)N[C@@H](Cc2cccc(C)c2)C(=O)N[C@@H](Cc2c[nH]c3ccccc23)C(=O)N[C@@H](CC(=O)O)C1=O [compound 1426] ({CH2CO}-[Phe(3-Me)]WD[NHexGly]YLNRL[Ahp(2)]PVVCS-OH; thioether N-14) |
| 3 | CCCCCCN1CC(=O)N[C@@H](Cc2ccc(O)cc2)C(=O)N[C@@H](CC(C)C)C(=O)N[C@@H](CC(N)=O)C(=O)N[C@@H](CCCNC(=N)N)C(=O)N[C@@H](CC(C)C)C(=O)N[C@@H](CCCCC)C(=O)N2CCC[C@H]2C(=O)N[C@@H](C(C)C)C(=O)N[C@@H](C(C)C)C(=O)N[C@H](C(=O)NCC(=O)O)CSCC(=O)N[C@@H](Cc2cccc(C)c2)C(=O)N[C@@H](Cc2ccc(O)cc2)C(=O)N[C@@H](CC(=O)O)C1=O [compound 1432] ({CH2CO}-[Phe(3-Me)]YD[NHexGly]YLNRL[Ahp(2)]PVVCG-OH; thioether N-14) |
| 2.5 | CCCCCCN1CC(=O)N[C@@H](Cc2ccc(O)cc2)C(=O)N[C@@H](CCCC)C(=O)NCC(=O)N[C@@H](CCCNC(=N)N)C(=O)N[C@@H](CC(C)C)C(=O)N[C@@H](CCCCC)C(=O)N2CCC[C@H]2C(=O)N[C@@H](C(C)C)C(=O)N[C@@H](CC(=O)O)C(=O)N[C@H](C(=O)NCC(=O)O)CSCC(=O)N[C@@H](Cc2cccc(C)c2)C(=O)N[C@@H](Cc2ccc(O)cc2)C(=O)N[C@@H](CC(=O)O)C1=O [compound 1431] ({CH2CO}-[Phe(3-Me)]YD[NHexGly]Y[Nle]GRL[Ahp(2)]PVDCG-OH; thioether N-14) |
